For 23 compounds, IC50 results are on record in patent publication US9926281B2 (priority 2014, dated 2018).

The structures appear in SMILES notation.

The target of one test is human TACE (Homo sapiens (Human), UniProt P78536). To be noted: read-out: TACE potency IC50.
A further test concerns the target human MMP13 (Homo sapiens (Human), UniProt P45452). To be noted: read-out: hMMP-13 potency IC50.
The target of another test is human ADAMTS-5 (Homo sapiens (Human), UniProt Q9UNA0). Particulars: read-out: hADAMTS-5 potency IC50.
Sequence of human ADAMTS-5 (Q9UNA0 262-930): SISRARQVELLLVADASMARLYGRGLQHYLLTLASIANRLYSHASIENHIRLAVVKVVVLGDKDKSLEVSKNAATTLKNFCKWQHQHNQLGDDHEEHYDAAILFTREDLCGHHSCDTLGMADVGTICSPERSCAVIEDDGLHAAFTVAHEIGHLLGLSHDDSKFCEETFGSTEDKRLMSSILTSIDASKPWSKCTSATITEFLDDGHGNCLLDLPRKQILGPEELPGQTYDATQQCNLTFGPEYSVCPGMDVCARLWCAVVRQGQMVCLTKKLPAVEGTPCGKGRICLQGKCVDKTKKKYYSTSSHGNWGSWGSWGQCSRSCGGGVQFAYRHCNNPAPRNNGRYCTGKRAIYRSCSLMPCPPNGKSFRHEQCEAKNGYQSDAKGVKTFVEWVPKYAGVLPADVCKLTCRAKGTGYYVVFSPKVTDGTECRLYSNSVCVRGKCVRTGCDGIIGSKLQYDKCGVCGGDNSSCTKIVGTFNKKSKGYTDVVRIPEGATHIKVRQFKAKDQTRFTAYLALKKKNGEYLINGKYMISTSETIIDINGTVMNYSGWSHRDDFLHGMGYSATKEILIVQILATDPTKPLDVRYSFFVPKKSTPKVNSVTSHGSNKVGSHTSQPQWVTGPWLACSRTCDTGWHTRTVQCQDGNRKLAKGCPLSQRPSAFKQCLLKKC
The target in a further test is rnADAMTS-5 (1-564-6H) (Rattus norvegicus, UniProt Q6TY19). To be noted: read-out: Rat ADAMTS-5 potency IC50.

Sequence of human TACE (P78536 whole entry, looked up, change not shown): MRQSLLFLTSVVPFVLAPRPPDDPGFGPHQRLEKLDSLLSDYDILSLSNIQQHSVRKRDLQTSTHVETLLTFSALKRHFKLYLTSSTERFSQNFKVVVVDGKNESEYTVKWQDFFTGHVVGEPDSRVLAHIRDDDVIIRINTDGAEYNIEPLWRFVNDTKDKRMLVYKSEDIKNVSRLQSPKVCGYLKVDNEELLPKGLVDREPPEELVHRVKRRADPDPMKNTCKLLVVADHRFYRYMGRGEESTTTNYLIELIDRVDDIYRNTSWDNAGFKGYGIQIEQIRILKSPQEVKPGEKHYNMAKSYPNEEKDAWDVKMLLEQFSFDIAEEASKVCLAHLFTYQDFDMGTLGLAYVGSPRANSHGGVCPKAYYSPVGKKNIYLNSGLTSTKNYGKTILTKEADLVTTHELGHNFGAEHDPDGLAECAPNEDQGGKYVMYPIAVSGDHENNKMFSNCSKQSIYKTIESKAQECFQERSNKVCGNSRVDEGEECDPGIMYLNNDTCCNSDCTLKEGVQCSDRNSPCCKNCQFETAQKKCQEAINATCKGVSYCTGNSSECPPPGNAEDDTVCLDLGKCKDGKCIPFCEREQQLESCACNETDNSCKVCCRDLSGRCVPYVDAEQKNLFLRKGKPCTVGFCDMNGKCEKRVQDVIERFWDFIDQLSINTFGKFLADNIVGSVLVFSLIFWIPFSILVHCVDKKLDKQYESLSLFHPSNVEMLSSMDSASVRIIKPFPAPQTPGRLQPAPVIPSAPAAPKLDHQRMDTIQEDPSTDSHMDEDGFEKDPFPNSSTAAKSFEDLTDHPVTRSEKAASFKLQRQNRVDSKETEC
Protocol for human ADAMTS-5: Finally, the fluorescence is read on the Envision (Perkin Elmer) after an incubation of 90 min at 37° C.
Protocol for human MMP13: Human MMP13 is preactivated by incubated the enzyme in the same buffer complemented with 1 mM freshly prepared p-Aminophenylmercuric acetate (AMPA) for 1 hour at 37° C.

Turning to `O=C1NC(=O)C(CCC(=O)N2CCN(c3cc(Cl)cc(Cl)c3)CC2)(CNCc2ccccc2)N1` (stereo not shown) [Cpd 181, 5-[(benzylamino)methyl]-5-[3-[4-(3,5-dichlorophenyl)piperazin-1-yl]-3-oxo-propyl]imidazolidine-2,4-dione], the half-inhibitory concentration (IC50) is 2860 nM on human TACE, more than 20000 nM at human MMP13, 97 nM on human ADAMTS-5 and 127 nM on rnADAMTS-5 (1-564-6H).

`COC(=O)CC1(CCC(=O)N2CCN(c3cc(Cl)cc(Cl)c3)CC2)NC(=O)NC1=O` (stereo not shown) [Cpd 182, Methyl 2-[4-[3-[4-(3,5-dichlorophenyl)piperazin-1-yl]-3-oxo-propyl]-2,5-dioxo-imidazolidin-4-yl]acetate]: the concentration for half-maximal inhibition (IC50) is more than 4000 nM at human TACE, more than 20000 nM on human MMP13, 104 nM on human ADAMTS-5 and 87 nM at rnADAMTS-5 (1-564-6H).

As for `CC(C)(C)OC(=O)CC1(CCC(=O)N2CCN(c3cc(Cl)cc(Cl)c3)CC2)NC(=O)NC1=O` (stereo not shown) [Cpd 188, tert-butyl 2-[4-[3-[4-(3,5-dichlorophenyl)piperazin-1-yl]-3-oxo-propyl]-2,5-dioxo-imidazolidin-4-yl]acetate], the IC50 was more than 4000 nM at human TACE, 2670 nM on human MMP13, 53 nM at human ADAMTS-5 and 54 nM on rnADAMTS-5 (1-564-6H).

Take `O=C(CC1(CCC(=O)N2CCN(c3cc(Cl)cc(Cl)c3)CC2)NC(=O)NC1=O)NCCO` (stereo not shown) [Cpd 189, 2-[4-[3-[4-(3,5-dichlorophenyl)piperazin-1-yl]-3-oxo-propyl]-2,5-dioxo-imidazolidin-4-yl]-N-(2-hydroxyethyl)acetamide]: the concentration for half-maximal inhibition (IC50) is more than 4000 nM at human TACE, more than 20000 nM on human MMP13, 256 nM at human ADAMTS-5 and 254 nM at rnADAMTS-5 (1-564-6H).

On to `C[C@H]1CN(C(=O)CCC2(C3CC3)NC(=O)NC2=O)CCN1c1ccc(F)c(F)c1` (stereo partly drawn) [compound 161, 5-cyclopropyl-5-[3-[(3S)-4-(3,4-difluorophenyl)-3-methyl-piperazin-1-yl]-3-oxo-propyl]imidazolidine-2,4-dione], for which the IC50 was more than 20000 nM at human TACE, more than 20000 nM at human MMP13, 54 nM on human ADAMTS-5 and 37 nM at rnADAMTS-5 (1-564-6H).

As to `C[C@H]1CN(C(=O)CCC2(C3CC3)NC(=O)NC2=O)CCN1c1ccc(Cl)c(F)c1` (stereo partly drawn) [compound 162, 5-[3-[(3S)-4-(4-chloro-3-fluoro-phenyl)-3-methyl-piperazin-1-yl]-3-oxo-propyl]-5-cyclopropyl-imidazolidine-2,4-dione], the half-inhibitory concentration (IC50) was more than 20000 nM at human TACE, more than 4000 nM on human MMP13, 39 nM on human ADAMTS-5 and 45 nM on rnADAMTS-5 (1-564-6H).

With `C[C@H]1CN(C(=O)CCC2(C3CC3)NC(=O)NC2=O)CCN1c1ccc(F)c(Cl)c1` (stereo partly drawn) [compound 163, 5-[3-[(3S)-4-(3-chloro-4-fluoro-phenyl)-3-methyl-piperazin-1-yl]-3-oxo-propyl]-5-cyclopropyl-imidazolidine-2,4-dione], the IC50 was more than 20000 nM at human TACE, more than 20000 nM at human MMP13, 40 nM at human ADAMTS-5 and 45 nM on rnADAMTS-5 (1-564-6H).

On to `C[C@H]1CN(C(=O)CCC2(C3CC3)NC(=O)NC2=O)CCN1c1ccc(Cl)c(Cl)c1` (stereo partly drawn) [compound 167, 5-cyclopropyl-5-[3-[(3S)-4-(3,4-dichlorophenyl)-3-methyl-piperazin-1-yl]-3-oxo-propyl]imidazolidine-2,4-dione], for which the IC50 on human TACE is more than 4000 nM; on human MMP13, more than 4000 nM; on human ADAMTS-5 it was 19 nM; at rnADAMTS-5 (1-564-6H), 10 nM.

As to `C[C@H]1CN(C(=O)CCC2(C)NC(=O)NC2=O)CCN1c1ccc(Cl)c(Cl)c1` (stereo partly drawn) [compound 168, 5-[3-[(3S)-4-(3,4-dichlorophenyl)-3-methyl-piperazin-1-yl]-3-oxo-propyl]-5-methyl-imidazolidine-2,4-dione], the half-maximal inhibitory concentration (IC50) at human TACE is more than 20000 nM; on human MMP13 it was more than 20000 nM; on human ADAMTS-5 it was 76 nM; on rnADAMTS-5 (1-564-6H) it was 129 nM.

Regarding `C[C@H]1CN(C(=O)CCC2(C3CC3)NC(=O)NC2=O)CCN1c1cc(F)cc(Cl)c1` (stereo partly drawn) [compound 169, 5-[3-[(3S)-4-(3-chloro-5-fluoro-phenyl)-3-methyl-piperazin-1-yl]-3-oxo-propyl]-5-cyclopropyl-imidazolidine-2,4-dione], the 50% inhibitory concentration (IC50) on human TACE is more than 20000 nM; on human MMP13, more than 20000 nM; at human ADAMTS-5, 30 nM; on rnADAMTS-5 (1-564-6H), 27 nM.

As for `CC(CC1(C2CC2)NC(=O)NC1=O)C(=O)N1CCN(c2cc(Cl)cc(Cl)c2)CC1` (stereo not shown) [compound 172, 5-cyclopropyl-5-[3-[4-(3,5-dichlorophenyl)piperazin-1-yl]-2-methyl-3-oxo-propyl]imidazolidine-2,4-dione], the IC50 is 311 nM at human TACE, 2740 nM at human MMP13, 17 nM on human ADAMTS-5 and 11 nM on rnADAMTS-5 (1-564-6H).

Turning to `Cc1ccc(F)cc1N1CCN(C(=O)C(C)CC2(C3CC3)NC(=O)NC2=O)CC1` (stereo not shown) [compound 174, 5-cyclopropyl-5-[3-[4-(5-fluoro-2-methyl-phenyl)piperazin-1-yl]-2-methyl-3-oxo-propyl]imidazolidine-2,4-dione], the concentration for half-maximal inhibition (IC50) at human TACE is 321 nM; on human MMP13 it was more than 20000 nM; at human ADAMTS-5, 21 nM; on rnADAMTS-5 (1-564-6H) it was 17 nM.

Turning to `Cc1ccc(F)cc1N1CCN(C(=O)C(C)CC2(C)NC(=O)NC2=O)CC1` (stereo not shown) [compound 175, 5-[3-[4-(5-fluoro-2-methyl-phenyl)piperazin-1-yl]-2-methyl-3-oxo-propyl]-5-methyl-imidazolidine-2,4-dione], the IC50 is 251 nM at human TACE, more than 20000 nM at human MMP13, 25 nM at human ADAMTS-5 and 22 nM on rnADAMTS-5 (1-564-6H).

For the compound `Cc1c(Cl)cccc1N1CCN(C(=O)C(C)CC2(C3CC3)NC(=O)NC2=O)CC1` (stereo not shown) [compound 176, 5-[3-[4-(3-chloro-2-methyl-phenyl)piperazin-1-yl]-2-methyl-3-oxo-propyl]-5-cyclopropyl-imidazolidine-2,4-dione], the IC50 is 1230 nM at human TACE, more than 20000 nM on human MMP13, 16 nM at human ADAMTS-5 and 7 nM on rnADAMTS-5 (1-564-6H).

As to `Cc1c(Cl)cc(Cl)cc1N1CCN(C(=O)CCC2(C3CC3)NC(=O)NC2=O)C[C@@H]1C` (stereo partly drawn) [compound 177, 5-cyclopropyl-5-[3-[(3S)-4-(3,5-dichloro-2-methyl-phenyl)-3-methyl-piperazin-1-yl]-3-oxo-propyl]imidazolidine-2,4-dione], the IC50 on human TACE is 1990 nM; on human MMP13, more than 20000 nM; on human ADAMTS-5, 78 nM; on rnADAMTS-5 (1-564-6H), 40 nM.

With `NCC1(CCC(=O)N2CCN(c3cc(Cl)cc(Cl)c3)CC2)NC(=O)NC1=O` (stereo not shown) [compound 180, 5-(aminomethyl)-5-[3-[4-(3,5-dichlorophenyl)piperazin-1-yl]-3-oxo-propyl]imidazolidine-2,4-dione], the concentration for half-maximal inhibition (IC50) on human TACE is more than 4000 nM; at human MMP13, more than 20000 nM; at human ADAMTS-5 it was 177 nM; at rnADAMTS-5 (1-564-6H), 241 nM.

Consider `COCCNC(=O)CC1(CCC(=O)N2CCN(c3cc(Cl)cc(Cl)c3)CC2)NC(=O)NC1=O` (stereo not shown) [compound 187, 2-[4-[3-[4-(3,5-dichlorophenyl)piperazin-1-yl]-3-oxo-propyl]-2,5-dioxo-imidazolidin-4-yl]-N-(2-methoxyethyl)acetamide], for which the IC50 at human TACE was more than 20000 nM; on human MMP13 it was 2610 nM; at human ADAMTS-5, 456 nM; at rnADAMTS-5 (1-564-6H) it was 396 nM.

Consider `CC(CC1(C2CC2)NC(=O)NC1=O)C(=O)N1CCN(c2cccc(F)c2)[C@@H](C)C1` (stereo partly drawn) [compound 190, 5-cyclopropyl-5-[3-[(3S)-4-(3-fluorophenyl)-3-methyl-piperazin-1-yl]-2-methyl-3-oxo-propyl]imidazolidine-2,4-dione], for which the IC50 on human TACE was more than 20000 nM; on human MMP13, 3060 nM; on human ADAMTS-5, 22 nM; on rnADAMTS-5 (1-564-6H) it was 15 nM.

On to `CC(CC1(C2CC2)NC(=O)NC1=O)C(=O)N1CCN(c2ccc(F)c(F)c2)[C@@H](C)C1` (stereo partly drawn) [compound 191, 5-cyclopropyl-5-[3-[(3S)-4-(3,4-difluorophenyl)-3-methyl-piperazin-1-yl]-2-methyl-3-oxo-propyl]imidazolidine-2,4-dione], for which the IC50 at human TACE is more than 20000 nM; at human MMP13 it was 1880 nM; at human ADAMTS-5 it was 20 nM; on rnADAMTS-5 (1-564-6H), 11 nM.

Regarding `CC(CC1(C2CC2)NC(=O)NC1=O)C(=O)N1CCN(c2ccc(F)c(Cl)c2)[C@@H](C)C1` (stereo partly drawn) [compound 192, 5-[3-[(3S)-4-(3-chloro-4-fluoro-phenyl)-3-methyl-piperazin-1-yl]-2-methyl-3-oxo-propyl]-5-cyclopropyl-imidazolidine-2,4-dione], the concentration for half-maximal inhibition (IC50) at human TACE is more than 4000 nM; on human MMP13, 865 nM; on human ADAMTS-5, 11 nM; on rnADAMTS-5 (1-564-6H), 6 nM.

For the compound `CC(CC1(C2CC2)NC(=O)NC1=O)C(=O)N1CCN(c2ccc(Cl)cc2)[C@@H](C)C1` (stereo partly drawn) [compound 193, 5-[3-[(3S)-4-(4-chlorophenyl)-3-methyl-piperazin-1-yl]-2-methyl-3-oxo-propyl]-5-cyclopropyl-imidazolidine-2,4-dione], the half-maximal inhibitory concentration (IC50) on human TACE is more than 20000 nM; at human MMP13, 433 nM; at human ADAMTS-5, 23 nM; on rnADAMTS-5 (1-564-6H) it was 7 nM.

Turning to `CC(CC1(C2CC2)NC(=O)NC1=O)C(=O)N1CCN(c2cc(F)cc(Cl)c2)[C@@H](C)C1` (stereo partly drawn) [compound 194, 5-[3-[(3S)-4-(3-chloro-5-fluoro-phenyl)-3-methyl-piperazin-1-yl]-2-methyl-3-oxo-propyl]-5-cyclopropyl-imidazolidine-2,4-dione], the IC50 on human TACE is more than 4000 nM; at human MMP13, 952 nM; at human ADAMTS-5, 11 nM; at rnADAMTS-5 (1-564-6H), 5 nM.

Consider `CC(CC1NC(=O)NC1=O)C(=O)N1CCN(c2cc(Cl)cc(Cl)c2)CC1` (stereo not shown) [compound 219, 5-[3-[4-(3,5-dichlorophenyl)piperazin-1-yl]-2-methyl-3-oxo-propyl]imidazolidine-2,4-dione], for which the figures for the concentration for half-maximal inhibition (IC50) on human MMP13, at human ADAMTS-5 and at rnADAMTS-5 (1-564-6H) were more than 4000 nM, 41 nM and 29 nM, respectively.
